# How the values were obtained:
# [1] = tested on: COX-1 and COX-2 recombinant enzymes; conditions: major compound of fraction D3, Camellia sinensis aqueous extract; cited from earlier work
# [2] = tested on: B16 F1 mouse melanoma cells; test: Inhibition of melanogenesis (alpha-MSH stimulated melanin formation); format: cell-based; conditions: identified by dereplication of fractions D2 to D7
# Experimental: Inhibition of melanogenesis was determined by a modified method of Siegrist and Eberle (x). B16 F1 mouse melanoma cells (2.0×10^4 cells/mL) were subcultured in GibcoBRL Modified Eagle Medium (10% FBS, 1% Gibco non-essential amino acids, 1% PSG, 1.5% Gibco vitamin solution). After 3 days incubation (37° C., 5% CO2) cells were seeded (2500 cells/well, 200 μL) in 96 well sterile culture plates (Costar) and incubated overnight (37° C., 5% CO2). The next day, cell culture medium was replaced with 100 μL fresh medium. Extract samples were dissolved in DMSO at a concentration of 30 mg/mL and diluted 1:1000 in cell culture medium on separate, sterile, 96 well plates. […] Sample wells containing no α-MSH were used to determine sample absorbance at 450 nm unrelated to melanin pigment formation as control. […] The degree of melanin formation was determined at 450 nm in a 96 well plate reader. Percent inhibition of samples was determined by the formula: […]
# Ac MSH+: Absorbance at 450 nm of cells containing no sample, with MSH
# Ac MSH−: Absorbance at 450 nm of cells containing no sample, without MSH
# As MSH+: Absorbance at 450 nm of cells containing sample, with MSH
# As MSH−: Absorbance at 450 nm of cells containing sample, without MSH
Compound,COX inhibitor (known activity) [1],Inhibition of melanin synthesis [2]
"O=C(O[C@@H]1Cc2c(O)cc(O)cc2O[C@@H]1c1cc(O)c(O)c(O)c1)c1cc(O)c(O)c(O)c1 [Epigallocatechin Gallate (EGCG), Epigallocatechin Gallate]",well known COX inhibitor,
O=C(OC1C(CO)OC(O)C2OC(=O)c3cc(O)c(O)c(O)c3-c3c(cc(O)c(O)c3O)C(=O)OC21)c1cc(O)c(O)c(O)c1 (centres unmarked) [Pterocaryanin B],,inhibition of melanin synthesis

# Source: patent US20030113797A1, “Method for generating, screening and dereplicating natural product libraries for the discovery of therapeutic agents” (UNIGEN PHARMACEUTICALS, INC., priority 2001, published 2003)
